Data published in patent publication US7767659B2, “Synthesis of naturally occurring ecteinascidins and related compounds” (Pharma Mar, S.A., priority 2002, dated 2010).

Assays:
[1] = test system: LoVo-Dox; experiment: Inhibition of cells growth by colorimetric assay (SRB); conditions: Homo sapiens, 48 h; for GI50: read-out: GI50 LOVO-DOX; for CC50: read-out: LC50 LOVO-DOX; for IC (TGI): read-out: TGI LOVO-DOX
Method in brief: (§1)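 Colorimetric SRB read (490 nm) on triplicate wells after 48 h at 37 °C, 5% CO2. Dose range 10 to 10^−8 μg/ml; 5×10^3 cells/well pre-attached 18 h.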

[2] = test system: K-562; experiment: as above; conditions: Homo sapiens, K562, 48 h; for GI50: read-out: GI50 K562; for CC50: read-out: LC50 K562; for IC (TGI): read-out: TGI K562
Method in brief: as §1

[3] = test system: PANC-1; experiment: as above; conditions: Homo sapiens, PANC-1, 48 h; for GI50: read-out: GI50 PANC-1; for CC50: read-out: LC50 PANC-1; for IC (TGI): read-out: TGI PANC-1
Method in brief: as §1

[4] = test system: SK-MEL-28; experiment: as above; conditions: Homo sapiens, SK-MEL-28, 48 h; for GI50: read-out: GI50 MEL-28; for CC50: read-out: LC50 MEL-28; for IC (TGI): read-out: TGI MEL-28
Method in brief: as §1

[5] = test system: HeLa; experiment: as above; conditions: Homo sapiens, HeLa, 48 h; for GI50: read-out: GI50 HELA; for CC50: read-out: LC50 HELA; for IC (TGI): read-out: TGI HELA
Method in brief: as §1

[6] = test system: IGROV-1; experiment: as above; conditions: Homo sapiens, IGROV-1, 48 h; for GI50: read-out: GI50 IGROV; for CC50: read-out: LC50 IGROV; for IC (TGI): read-out: TGI IGROV
Method in brief: as §1

[7] = test system: SK-BR-3; experiment: as above; conditions: Homo sapiens, SK-BR-3, 48 h; for GI50: read-out: GI50 SK-BR3; for CC50: read-out: LC50 SK-BR3; for IC (TGI): read-out: TGI SK-BR3
Method in brief: as §1

[8] = test system: DU-145; experiment: as above; conditions: Homo sapiens, DU-145, 48 h; for GI50: read-out: GI50 DU145; for CC50: read-out: LC50 DU145; for IC (TGI): read-out: TGI DU145
Method in brief: as §1

[9] = test system: IGROV-ET; experiment: as above; conditions: Homo sapiens, 48 h; for GI50: read-out: GI50 IGROV-ET; for CC50: read-out: LC50 IGROV-ET; for IC (TGI): read-out: TGI IGROV-ET
Method in brief: as §1

[10] = test system: HeLa-APL; experiment: as above; conditions: Homo sapiens, 48 h; for GI50: read-out: GI50 HELA-APL; for CC50: read-out: LC50 HELA-APL; for IC (TGI): read-out: TGI HELA-APL
Method in brief: as §1

[11] = test system: LNCaP; experiment: as above; conditions: Homo sapiens, LNCaP, 48 h; for GI50: read-out: GI50 LNCAP; for CC50: read-out: LC50 LNCAP; for IC (TGI): read-out: TGI LNCAP
Method in brief: as §1

[12] = test system: HT-29; experiment: cells; conditions: Homo sapiens, HT-29, 48 h; for GI50: read-out: GI50 HT29; for CC50: read-out: LC50 HT29; for IC (TGI): read-out: TGI HT29
Method in brief: as §1

[13] = test system: A-549; experiment: cells; conditions: Homo sapiens, A549, 48 h; for GI50: read-out: GI50 A549; for CC50: read-out: LC50 A549; for IC (TGI): read-out: TGI A549
Method in brief: as §1

[14] = test system: LoVo; experiment: cells; conditions: Homo sapiens, LoVo, 48 h; for GI50: read-out: GI50 LOVO; for CC50: read-out: LC50 LOVO; for IC (TGI): read-out: TGI LOVO
Method in brief: as §1

For `COc1c(C)cc2c(c1O)[C@@H]1C3[C@@H]4SC[C@]5(NCCc6c5[nH]c5ccccc65)C(=O)OC[C@@H](c5c6c(c(C)c(OC(C)=O)c54)OCO6)N3[C@@H](C#N)[C@H](C2)N1C` (stereo partly drawn) [compound 22], the GI50 [1] was 87.4 nM, the CC50 [1] was 13100 nM and the IC (TGI) [1] was 524 nM. It also gave a GI50 [2] of 5.92 nM, a CC50 [2] of 840 nM and an IC (TGI) [2] of 42.4 nM. The GI50 [3] was 29.6 nM, the CC50 [3] was 854 nM and the IC (TGI) [3] was 73.8 nM. It also gave a GI50 [4] of 30.2 nM, a CC50 [4] of 102 nM and an IC (TGI) [4] of 55.5 nM. The GI50 [5] was 33.2 nM, the CC50 [5] was 158 nM and the IC (TGI) [5] was 56.6 nM. It also gave a GI50 [6] of 19.1 nM, a CC50 [6] of 104 nM and an IC (TGI) [6] of 44.6 nM. It also gave a GI50 [7] of 5.77 nM, a CC50 [7] of 120 nM and an IC (TGI) [7] of 22.3 nM. The GI50 [8] was 29.6 nM, the CC50 [8] was 1310 nM and the IC (TGI) [8] was 86.8 nM. It also gave a GI50 [9] of 52.2 nM, a CC50 [9] of 131 nM and an IC (TGI) [9] of 104 nM. It also gave a GI50 [10] of 21.1 nM, a CC50 [10] of 93.5 nM and an IC (TGI) [10] of 44.4 nM. It also gave a GI50 [11] of 6.15 nM, a CC50 [11] of 55 nM and an IC (TGI) [11] of 21.1 nM. The GI50 [12] was 29.7 nM, the CC50 [12] was 13100 nM and the IC (TGI) [12] was 82.5 nM. It also gave a GI50 [13] of 26.7 nM, a CC50 [13] of 131 nM and an IC (TGI) [13] of 59 nM. The GI50 [14] was 20.3 nM, the CC50 [14] was 96.5 nM and the IC (TGI) [14] was 41.1 nM.
`COC1=C(C)C(=O)C2=C(C1=O)[C@@H]1C3[C@@H]4SC[C@]5(NCCc6c5[nH]c5ccccc65)C(=O)OC[C@@H](c5c6c(c(C)c(OC(C)=O)c54)OCO6)N3[C@@H](C#N)[C@H](C2)N1C` (stereo partly drawn) [compound 23] showed a GI50 [1] of 661 nM, a CC50 [1] of 12900 nM and an IC (TGI) [1] of 7460 nM. For the same molecule, the GI50 [2] was 20.3 nM, the CC50 [2] was 1400 nM and the IC (TGI) [2] was 73.3 nM. It also gave a GI50 [3] of 509 nM, a CC50 [3] of 12900 nM and an IC (TGI) [3] of 1260 nM. The GI50 [4] was 247 nM, the CC50 [4] was 857 nM and the IC (TGI) [4] was 460 nM. It also gave a GI50 [5] of 38.2 nM, a CC50 [5] of 114 nM and an IC (TGI) [5] of 66 nM. For the same molecule, the GI50 [6] was 350 nM, the CC50 [6] was 1130 nM and the IC (TGI) [6] was 627 nM. It also gave a GI50 [7] of 13.1 nM, a CC50 [7] of 645 nM and an IC (TGI) [7] of 87.7 nM. For the same molecule, the GI50 [8] was 58.5 nM, the CC50 [8] was 4450 nM and the IC (TGI) [8] was 143 nM. The GI50 [9] was 456 nM, the CC50 [9] was 1260 nM and the IC (TGI) [9] was 760 nM. The GI50 [10] was 35.6 nM, the CC50 [10] was 102 nM and the IC (TGI) [10] was 60.3 nM. It also gave a GI50 [11] of 153 nM, a CC50 [11] of 657 nM and an IC (TGI) [11] of 318 nM. For the same molecule, the GI50 [12] was 51.2 nM, the CC50 [12] was 12900 nM and the IC (TGI) [12] was 215 nM. For the same molecule, the GI50 [13] was 60.6 nM, the CC50 [13] was 785 nM and the IC (TGI) [13] was 211 nM. For the same molecule, the GI50 [14] was 276 nM, the CC50 [14] was 983 nM and the IC (TGI) [14] was 522 nM.
